Patent US20240293402A1, “FORMULATION CONTAINING DIHYDROPYRIDAZINE-3,5-DIONE DERIVATIVE (as amended)” (CHUGAI SEIYAKU KABUSHIKI KAISHA, priority 2021, published 2024)

Legend:
PiT-2 = biological target: T1, PiT-2 (Homo sapiens, UniProt Q08357); details: general statement, reported in Patent Literatures 6 and 7; cited from earlier work
T1 sequence (Q08357 1-652): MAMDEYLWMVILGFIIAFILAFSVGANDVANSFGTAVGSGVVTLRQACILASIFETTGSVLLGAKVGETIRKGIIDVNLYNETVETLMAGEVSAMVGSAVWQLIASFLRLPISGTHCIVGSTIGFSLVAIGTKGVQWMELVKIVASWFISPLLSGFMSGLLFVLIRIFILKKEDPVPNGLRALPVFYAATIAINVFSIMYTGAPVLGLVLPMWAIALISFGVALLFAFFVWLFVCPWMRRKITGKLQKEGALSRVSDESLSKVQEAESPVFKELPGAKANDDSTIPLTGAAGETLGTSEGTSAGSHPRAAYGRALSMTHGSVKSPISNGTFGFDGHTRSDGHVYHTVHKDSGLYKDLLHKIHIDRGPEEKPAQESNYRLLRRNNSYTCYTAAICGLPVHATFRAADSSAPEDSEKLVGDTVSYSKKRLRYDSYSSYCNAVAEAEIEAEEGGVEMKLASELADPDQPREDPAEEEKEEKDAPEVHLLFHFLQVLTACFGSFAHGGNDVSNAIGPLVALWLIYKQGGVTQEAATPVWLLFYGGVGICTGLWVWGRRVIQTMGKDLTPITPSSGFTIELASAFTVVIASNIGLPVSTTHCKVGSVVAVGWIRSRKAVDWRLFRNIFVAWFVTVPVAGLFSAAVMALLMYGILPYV

PiT-1 = biological target: T2, PiT-1 (Homo sapiens, UniProt Q8WUM9); details: general statement, reported in Patent Literatures 6 and 7; cited from earlier work
T2 sequence (Q8WUM9 1-679): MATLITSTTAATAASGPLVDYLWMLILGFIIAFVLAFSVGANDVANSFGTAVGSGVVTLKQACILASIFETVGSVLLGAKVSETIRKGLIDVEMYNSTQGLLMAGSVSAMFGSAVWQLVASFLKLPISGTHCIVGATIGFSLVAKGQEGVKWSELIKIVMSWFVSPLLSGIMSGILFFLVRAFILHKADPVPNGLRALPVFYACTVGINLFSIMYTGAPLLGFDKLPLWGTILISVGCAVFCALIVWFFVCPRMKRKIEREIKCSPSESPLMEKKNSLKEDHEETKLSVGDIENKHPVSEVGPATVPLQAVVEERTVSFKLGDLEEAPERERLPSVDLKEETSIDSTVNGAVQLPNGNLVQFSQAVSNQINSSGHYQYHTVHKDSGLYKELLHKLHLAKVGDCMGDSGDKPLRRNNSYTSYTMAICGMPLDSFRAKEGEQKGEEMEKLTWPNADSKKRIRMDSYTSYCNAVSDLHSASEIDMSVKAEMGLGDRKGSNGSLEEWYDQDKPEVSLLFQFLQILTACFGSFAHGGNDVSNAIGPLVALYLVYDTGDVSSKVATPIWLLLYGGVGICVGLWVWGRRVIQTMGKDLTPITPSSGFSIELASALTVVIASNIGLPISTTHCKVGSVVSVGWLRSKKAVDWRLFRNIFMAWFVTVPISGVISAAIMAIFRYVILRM

NaPi-IIb = biological target: T3, NaPi-IIb (Homo sapiens, UniProt O95436); details: general statement, reported in Patent Literatures 6 and 7; cited from earlier work
T3 sequence (O95436 1-690): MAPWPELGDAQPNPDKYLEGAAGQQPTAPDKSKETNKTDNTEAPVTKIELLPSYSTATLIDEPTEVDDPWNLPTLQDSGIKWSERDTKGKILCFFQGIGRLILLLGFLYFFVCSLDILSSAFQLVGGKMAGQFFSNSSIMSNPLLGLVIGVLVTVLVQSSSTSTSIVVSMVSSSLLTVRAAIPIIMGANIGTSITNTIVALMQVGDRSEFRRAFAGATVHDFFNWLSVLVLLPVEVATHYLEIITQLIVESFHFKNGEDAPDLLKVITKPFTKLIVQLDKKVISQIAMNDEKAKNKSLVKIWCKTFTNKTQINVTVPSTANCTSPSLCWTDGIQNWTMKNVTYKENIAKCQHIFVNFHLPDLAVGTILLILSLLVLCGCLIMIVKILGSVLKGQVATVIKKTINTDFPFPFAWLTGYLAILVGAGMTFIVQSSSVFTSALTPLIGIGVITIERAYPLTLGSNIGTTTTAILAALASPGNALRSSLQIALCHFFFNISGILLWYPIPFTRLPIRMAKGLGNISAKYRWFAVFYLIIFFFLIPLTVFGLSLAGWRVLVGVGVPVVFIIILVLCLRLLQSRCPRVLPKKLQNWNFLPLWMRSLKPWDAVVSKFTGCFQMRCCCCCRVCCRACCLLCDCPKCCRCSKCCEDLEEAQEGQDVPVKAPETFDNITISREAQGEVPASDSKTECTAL

Solubility in water = type: physicochemical; details: general statement

Compound: COCCN(C)CCOc1ccc(CN2C(=O)C(C(=O)Nc3ccc(C(F)(F)F)cc3-c3cc(C(F)(F)F)ncn3)=C(O)C3(CCCC3)N2C)c(F)c1F.Cc1ccc(S(=O)(=O)O)cc1 [Compound I, 7-[[2,3-difluoro-4-[2-[2-methoxyethyl(methyl)amino]ethoxy]phenyl]methyl]-10-hydroxy-6-methyl-8-oxo-N-[4-(trifluoromethyl)-2-[6-(trifluoromethyl)pyrimidin-4-yl]phenyl]-6,7-diazaspiro[4,5]deca-9-ene-9-carboxamide]
- inhibitory action on PiT-2 (PiT-2): strong inhibitory action
- inhibitory action on PiT-1 (PiT-1): strong inhibitory action
- inhibitory action on NaPi-IIb (NaPi-IIb): strong inhibitory action
- solubility in water (Solubility in water): hardly soluble in water
